Laboratory results as given in PMC5940828, “Analysis of β-tubulin-carbendazim interaction reveals that binding site for MBC fungicides does not include residues involved in fungicide resistance” (Scientific Reports, 2018).

Target: T1, P. xanthii β-tubulin (TUB2), MBC-sensitive (E198) (Podosphaera fusca, UniProt M4QC09)
T1 construct: β-tubulin alone without α-tubulin; E198 allele
Test: intrinsic tryptophan fluorescence quenching, modified Stern-Volmer
Assay type: binding
Settings: double-log; n = 1.41; excitation 295 nm; carbendazim dosed as commercial 50% water-dispersible formulation (Maypon Flow)
Text: intrinsic tryptophan fluorescence quenching, modified Stern-Volmer on P. xanthii β-tubulin (TUB2), MBC-sensitive (E198)

T1 sequence (M4QC09 1-447): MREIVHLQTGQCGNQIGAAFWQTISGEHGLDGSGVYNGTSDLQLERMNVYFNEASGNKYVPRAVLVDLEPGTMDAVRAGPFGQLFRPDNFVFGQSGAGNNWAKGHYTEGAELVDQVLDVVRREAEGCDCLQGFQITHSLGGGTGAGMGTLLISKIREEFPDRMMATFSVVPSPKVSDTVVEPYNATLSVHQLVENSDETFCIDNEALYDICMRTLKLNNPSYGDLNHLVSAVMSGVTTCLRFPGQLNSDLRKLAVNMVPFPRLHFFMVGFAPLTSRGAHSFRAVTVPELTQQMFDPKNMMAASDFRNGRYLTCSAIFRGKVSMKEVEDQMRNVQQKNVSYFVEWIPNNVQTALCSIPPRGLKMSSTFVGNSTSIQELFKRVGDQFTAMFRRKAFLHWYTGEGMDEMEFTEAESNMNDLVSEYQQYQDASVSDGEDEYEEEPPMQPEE

In the case of COC(=O)Nc1nc2ccccc2[nH]1 [carbendazim, methyl-2-benzimidazole carbamate], the “K^b” value is reported as 1380 M⁻¹.
